Results taken from US7638516B2, “Agent for therapeutic treatment of optic nerve diseases and the like” (Mei Co., Ltd., priority 2000, dated 2009).

Tested on: retinal degeneration induced by transient retinal ischemia
Assay: Suppressing effect on retinal degeneration in transient retinal ischemia
Format: in vivo, Wister male rats
Conditions: rat, 3 mg/kg into the caudal vein immediately before and after ocular hypertension treatment (IOP 130 mmHg, 50 minutes); 7 days after treatment; p<0.01 relative to control
Procedure: Wister male rats (body weight of about 200 g) were used. Each animal was subjected to sufficient warming treatment by using a thermal plate under anesthesia, and the head was fixed by using a stereotaxic apparatus. In order to induce transient retinal ischemia, IOP was maintained at 130 mmHg for 50 minutes by injecting intraocular irrigating solution into the anterior chamber via the cornea using an infusion tube and 30 G injection needle which were connected to a bottle held at 174 cm above the eyes (ocular hypertension treatment) according to the method of Akaike (Folia Pharmacologica Japonica, 111, pp. 97-104 (1998)). The ocular hypertension treatment was performed only on the right eye, and the left eye was left untreated. Immediately before and after the ocular hypertension treatment, a physiological saline solution or a dose of 3 mg/kg of MCI-186 was injected to the caudal vein. […] That is, a light-microscopic section of the retina was prepared 7 days after the ocular hypertension treatment, and the thickness of the retina was measured under microscope by using a micrometer (thickness from inner plexiform layer to inner nuclear layer). […] 7 days after the ocular hypertension treatment. Data represent means±SEM. As for the number of animals, the control group consisted of 10 rats, and the MCI-186 group consisted of 11 rats. […]

Compound: CC1=NN(c2ccccc2)C(=O)C1 [MCI-186, 3-methyl-1-phenyl-2-pyrazolin-5-one]
- retinal degeneration induced by transient retinal ischemia (retinal thickness ratio, ocular hypertension treated eye/normal eye): significantly suppressed
